Converted amounts (≈) assume the structure as drawn. Where two headings read alike, the source gives them in different places.
How the values were obtained:
[1] = molecular target: CYP2E1 (Homo sapiens, UniProt P05181); assay: Cocktail assay IC50 determination in human liver microsomes; conditions: substrate chloroxazone
[2] = molecular target: T1, CYP3A4 (Homo sapiens, UniProt P08684); assay type: in vitro ADME; conditions: recombinant human CYP3A4, 20 µM
Target sequence in this assay (P08684 2-503 limits assumed): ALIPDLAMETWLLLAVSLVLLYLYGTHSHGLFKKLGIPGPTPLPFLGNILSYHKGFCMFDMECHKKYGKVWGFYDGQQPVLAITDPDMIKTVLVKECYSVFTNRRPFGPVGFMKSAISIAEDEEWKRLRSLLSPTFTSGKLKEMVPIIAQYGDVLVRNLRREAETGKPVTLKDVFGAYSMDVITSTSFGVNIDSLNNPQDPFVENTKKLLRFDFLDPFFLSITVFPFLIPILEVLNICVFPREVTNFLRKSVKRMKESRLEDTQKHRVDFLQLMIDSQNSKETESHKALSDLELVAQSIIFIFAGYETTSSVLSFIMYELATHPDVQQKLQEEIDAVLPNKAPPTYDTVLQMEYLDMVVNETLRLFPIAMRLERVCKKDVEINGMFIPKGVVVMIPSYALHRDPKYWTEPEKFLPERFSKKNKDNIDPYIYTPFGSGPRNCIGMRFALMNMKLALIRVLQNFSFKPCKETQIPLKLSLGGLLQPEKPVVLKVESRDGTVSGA

[3] = molecular target: T1, CYP3A4; assay: Single concentration; conditions: human liver microsomes
Target sequence in this assay (P08684 whole entry): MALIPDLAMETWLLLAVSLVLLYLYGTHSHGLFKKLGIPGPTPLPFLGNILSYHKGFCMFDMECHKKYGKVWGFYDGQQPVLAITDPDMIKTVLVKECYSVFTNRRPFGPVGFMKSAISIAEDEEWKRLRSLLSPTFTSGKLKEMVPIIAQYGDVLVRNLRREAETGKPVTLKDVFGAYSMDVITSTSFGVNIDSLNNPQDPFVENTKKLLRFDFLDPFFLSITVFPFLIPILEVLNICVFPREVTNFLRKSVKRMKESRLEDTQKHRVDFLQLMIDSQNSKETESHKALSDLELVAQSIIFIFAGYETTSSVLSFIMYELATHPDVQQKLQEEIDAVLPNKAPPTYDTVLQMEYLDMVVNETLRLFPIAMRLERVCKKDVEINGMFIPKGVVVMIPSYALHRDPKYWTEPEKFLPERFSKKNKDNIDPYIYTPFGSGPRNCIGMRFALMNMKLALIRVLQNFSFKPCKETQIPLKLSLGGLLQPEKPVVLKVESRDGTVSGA

[4] = molecular target: T2, CYP1A2 (Homo sapiens, UniProt P05177); conditions: ref He et al. (2015); cited from earlier work
T2 sequence (P05177 1-516): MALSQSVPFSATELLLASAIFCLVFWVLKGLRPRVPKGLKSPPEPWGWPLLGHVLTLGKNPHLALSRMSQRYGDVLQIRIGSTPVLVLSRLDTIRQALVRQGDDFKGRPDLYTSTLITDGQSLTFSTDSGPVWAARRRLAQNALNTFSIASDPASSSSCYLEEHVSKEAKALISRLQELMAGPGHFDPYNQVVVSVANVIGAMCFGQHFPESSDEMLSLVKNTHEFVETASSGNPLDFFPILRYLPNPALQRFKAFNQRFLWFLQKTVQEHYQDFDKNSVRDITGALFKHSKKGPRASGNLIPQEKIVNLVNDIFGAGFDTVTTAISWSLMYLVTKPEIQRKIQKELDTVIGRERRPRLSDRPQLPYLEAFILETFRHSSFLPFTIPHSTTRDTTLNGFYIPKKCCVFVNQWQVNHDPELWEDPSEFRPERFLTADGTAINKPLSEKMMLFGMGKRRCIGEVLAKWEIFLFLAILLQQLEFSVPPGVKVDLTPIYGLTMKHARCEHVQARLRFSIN

[5] = molecular target: T3, CYP2C19 (Homo sapiens, UniProt P33261); conditions: human liver microsomes, substrate (S)-mephenytoin, mean ± standard deviation
T3 sequence (P33261 whole entry): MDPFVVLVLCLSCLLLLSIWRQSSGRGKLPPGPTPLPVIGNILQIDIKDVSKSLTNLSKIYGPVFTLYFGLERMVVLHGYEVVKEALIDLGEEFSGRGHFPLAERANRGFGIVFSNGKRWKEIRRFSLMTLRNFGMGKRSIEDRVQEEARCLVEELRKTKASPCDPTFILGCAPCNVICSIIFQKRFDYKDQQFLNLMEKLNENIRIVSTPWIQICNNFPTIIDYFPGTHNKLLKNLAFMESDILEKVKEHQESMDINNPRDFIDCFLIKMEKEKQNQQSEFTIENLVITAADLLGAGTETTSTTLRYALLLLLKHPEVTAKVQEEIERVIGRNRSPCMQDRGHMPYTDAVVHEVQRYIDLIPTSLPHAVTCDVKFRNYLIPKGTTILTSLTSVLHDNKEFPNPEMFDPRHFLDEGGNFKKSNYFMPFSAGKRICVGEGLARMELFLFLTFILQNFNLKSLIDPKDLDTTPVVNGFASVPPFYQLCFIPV

[6] = molecular target: T1, CYP3A4; assay: Single point time-dependent inhibition screening assay in human liver microsomes
Target sequence in this assay (P08684 whole entry): as the sequence (P08684 whole entry) above

[7] = molecular target: T2, CYP1A2; assay: Cocktail assay IC50 determination in human liver microsomes; conditions: substrate phenacetin, mean ± standard deviation
[8] = molecular target: T3, CYP2C19; assay: Single concentration; conditions: human liver microsomes
[9] = molecular target: T1, CYP3A4; assay: Effect of washing to restore CYP3A4 activity, human liver microsomes; assay type: in vitro ADME; conditions: 50 µM, 30 min preincubation, washed 3 times, midazolam
Target sequence in this assay (P08684 whole entry): as above

[10] = molecular target: T4, CYP2C8 (Homo sapiens, UniProt P10632); assay: Single concentration; conditions: human liver microsomes
T4 sequence (P10632 1-490): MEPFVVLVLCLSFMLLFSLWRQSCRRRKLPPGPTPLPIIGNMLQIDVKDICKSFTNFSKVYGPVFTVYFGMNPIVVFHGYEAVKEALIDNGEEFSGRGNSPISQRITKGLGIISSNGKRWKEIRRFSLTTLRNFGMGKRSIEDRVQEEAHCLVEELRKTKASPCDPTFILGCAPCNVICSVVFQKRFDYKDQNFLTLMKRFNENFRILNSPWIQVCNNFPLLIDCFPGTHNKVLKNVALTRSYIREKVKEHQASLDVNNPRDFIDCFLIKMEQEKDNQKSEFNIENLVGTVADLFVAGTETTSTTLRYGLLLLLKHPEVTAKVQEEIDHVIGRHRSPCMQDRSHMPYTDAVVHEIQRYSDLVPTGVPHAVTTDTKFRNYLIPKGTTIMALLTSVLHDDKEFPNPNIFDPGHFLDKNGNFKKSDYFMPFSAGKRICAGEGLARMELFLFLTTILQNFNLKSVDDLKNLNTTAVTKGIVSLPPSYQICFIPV

[11] = molecular target: T5, CYP2A6 (Homo sapiens, UniProt P11509); assay: Cocktail assay IC50 determination in human liver microsomes; conditions: substrate coumarin
T5 sequence (P11509 1-494): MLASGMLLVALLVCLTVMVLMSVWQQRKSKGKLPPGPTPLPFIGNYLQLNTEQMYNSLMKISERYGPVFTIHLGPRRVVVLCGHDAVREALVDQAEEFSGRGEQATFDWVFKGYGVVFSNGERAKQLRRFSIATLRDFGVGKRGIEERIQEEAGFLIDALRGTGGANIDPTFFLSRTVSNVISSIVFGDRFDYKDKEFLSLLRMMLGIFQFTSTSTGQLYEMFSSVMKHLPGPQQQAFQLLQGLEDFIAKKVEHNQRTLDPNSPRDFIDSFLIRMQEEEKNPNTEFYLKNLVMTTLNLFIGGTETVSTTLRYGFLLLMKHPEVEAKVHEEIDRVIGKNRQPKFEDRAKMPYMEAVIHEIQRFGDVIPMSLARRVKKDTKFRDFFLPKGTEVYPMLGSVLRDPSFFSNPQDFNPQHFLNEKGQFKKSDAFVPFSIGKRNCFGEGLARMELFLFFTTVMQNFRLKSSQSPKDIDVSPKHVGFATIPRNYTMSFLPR

[12] = molecular target: T1, CYP3A4; assay: Effect of washing to restore CYP3A4 activity, recombinant CYP3A4; assay type: in vitro ADME; conditions: recombinant CYP3A4, 10 µM, 30 min preincubation, washed 3 times, midazolam
Target sequence in this assay (P08684 2-503 limits assumed): as the sequence (P08684 2-503 limits assumed) above

[13] = molecular target: CYP3A4 (midazolam) (Homo sapiens, UniProt P08684); assay: KI and kinact determination in human liver microsomes; assay type: in vitro ADME
CYP3A4 (midazolam), sequence (P08684 whole entry): as the sequence (P08684 whole entry) above

[14] = molecular target: CYP2C9 (Homo sapiens, UniProt P11712); assay: Single concentration; conditions: human liver microsomes
CYP2C9, sequence (P11712 whole entry): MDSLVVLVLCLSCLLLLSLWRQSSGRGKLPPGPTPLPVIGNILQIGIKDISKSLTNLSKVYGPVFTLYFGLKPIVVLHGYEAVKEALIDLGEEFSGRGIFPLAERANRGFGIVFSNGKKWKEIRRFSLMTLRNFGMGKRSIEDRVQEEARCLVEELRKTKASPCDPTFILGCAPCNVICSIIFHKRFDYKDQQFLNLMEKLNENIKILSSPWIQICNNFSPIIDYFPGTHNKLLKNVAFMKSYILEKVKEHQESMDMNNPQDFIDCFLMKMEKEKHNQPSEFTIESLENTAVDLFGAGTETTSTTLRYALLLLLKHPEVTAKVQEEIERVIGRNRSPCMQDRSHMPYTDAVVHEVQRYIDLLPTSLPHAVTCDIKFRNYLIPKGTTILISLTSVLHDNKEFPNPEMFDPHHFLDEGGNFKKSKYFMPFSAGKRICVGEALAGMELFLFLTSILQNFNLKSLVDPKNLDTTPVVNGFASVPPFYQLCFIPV

[15] = molecular target: T1, CYP3A4; assay: KI and kinact determination with recombinant CYP3A4; assay type: in vitro ADME
Target sequence in this assay (P08684 2-503 limits assumed): as the sequence (P08684 2-503 limits assumed) above

[16] = molecular target: T1, CYP3A4; assay: Cocktail assay IC50 determination in human liver microsomes; conditions: mean ± standard deviation
Target sequence in this assay (P08684 whole entry): as the sequence (P08684 whole entry) above

CYP2E1, sequence (P05181 whole entry): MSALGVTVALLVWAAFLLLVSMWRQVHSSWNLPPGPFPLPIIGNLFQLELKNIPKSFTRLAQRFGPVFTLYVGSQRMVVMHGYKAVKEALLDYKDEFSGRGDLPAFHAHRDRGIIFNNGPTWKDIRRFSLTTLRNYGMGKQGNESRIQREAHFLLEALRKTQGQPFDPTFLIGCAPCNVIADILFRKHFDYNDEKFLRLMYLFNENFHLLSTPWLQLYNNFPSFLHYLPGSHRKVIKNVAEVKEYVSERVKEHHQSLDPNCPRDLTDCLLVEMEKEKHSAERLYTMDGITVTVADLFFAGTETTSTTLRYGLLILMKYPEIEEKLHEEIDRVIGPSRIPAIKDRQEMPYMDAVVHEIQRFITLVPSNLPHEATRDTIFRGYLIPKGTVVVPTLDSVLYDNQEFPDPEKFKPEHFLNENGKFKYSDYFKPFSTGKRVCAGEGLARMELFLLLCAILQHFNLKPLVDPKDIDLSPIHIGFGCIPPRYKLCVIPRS

C=CC(C)(C)c1cc(/C=C/C(=O)c2ccc(O)cc2)c(OC)cc1O [Licochalcone A, licochalcone A]
IC50, CYP2E1 [1]: >25 µg/mL
% Control activity ([2]; NADPH, 2 mM glutathione): 32.4%
% Control activity ([2]; NADPH, 1000 U/mL catalase): 38.8%
% Control activity ([2]; NADPH, 1000 U/mL superoxide dismutase): 28.1%
% Control activity ([2]; NADPH, mean of two experiments): 42.0%
% Control activity ([2]; without NADPH, mean of two experiments): 100%
inhibition of CYP3A4 (testosterone) at 10 µM, in words [3]: moderate inhibitor
inhibition of CYP1A2, in words [4]: strongly inhibited
IC50, CYP2C19 [5]: 3.60 ± 0.79 µg/mL (≈ 10.6 µM)
time-dependent inhibition of CYP3A4 (midazolam), in words [6]: demonstrated time-dependent inhibition
IC50, CYP1A2 [7]: 12.40 ± 3.47 µg/mL (≈ 36.6 µM)
inhibition of CYP2C19 at 10 µM, in words [8]: moderate inhibitor
remaining enzyme activity after washing out the inhibitor [9]: 57%
inhibition of CYP2C8 at 10 µM, in words [10]: strongly inhibited
IC50, CYP2A6 [11]: >25 µg/mL
remaining enzyme activity after washing out the inhibitor [12]: 16.7%
Efficiency of inactivation ([13]; human liver microsomes): 0.0033 µM⁻¹ min⁻¹
kinact for inactivation of CYP3A4 (midazolam) ([13]; human liver microsomes): 0.38 min⁻¹
type of CYP3A4 inhibition, conclusion in words ([13]; human liver microsomes and recombinant CYP3A4): mechanism based inhibitor
KI (inactivation) ([13]; read-out: KI for inactivation of CYP3A4 (midazolam), human liver microsomes): 116 µM
inhibition of CYP2C9 at 10 µM, in words [14]: strongly inhibited
KI (inactivation) ([15]; read-out: KI for inactivation of CYP3A4 (midazolam), recombinant human CYP3A4): 2.22 µM
Efficiency of inactivation ([15]; recombinant CYP3A4): 0.021 µM⁻¹ min⁻¹
kinact for inactivation of CYP3A4 (midazolam) ([15]; recombinant human CYP3A4): 0.047 min⁻¹
IC50, CYP3A4 (midazolam) ([16]; substrate midazolam): 16.05 ± 1.91 µg/mL (≈ 47.4 µM)
IC50, CYP3A4 (testosterone) ([16]; substrate testosterone): 6.78 ± 1.27 µg/mL (≈ 20 µM)

From paper PMC5656517 (European journal of pharmaceutical sciences : official …, 2017)
